For the experiment, the system named is HepG2 cells. As to the kind of experiment: H2O2-induced intracellular ROS scavenging in HepG2 cells (DCFH-DA, flow cytometry). Format: cell-based, human. Particulars: VC 10.0 µmol/L 24 h, then 1.2 mmol/L H2O2 seven hours, median (25%, 75% quartiles), n = 4, model M 139.46 %, blank K 101 %. How it is done: According to Liu et al. (2020), the H2O2-induced scavenging activity of reactive oxygen species was evaluated. In this experiment, various groups were established, including the blank, sample, positive control, and model groups. Refer to the Supplementary Materials for specific information. […]
and NDPF concentrations were 1.0 mmol/L, and the positive control rosiglitazone concentration was 20.0 µmol/L. At the end of the incubation, the glucose content in the culture medium was measured using the glucose oxidase-peroxidase method kit by Nanjing Jiancheng Biological Co., Ltd., and the glucose content was calibrated by measuring the cell activity using the MTT […]
7. Evaluation of scavenging capacity against intracellular ROS
HepG2 cells (2.0 mL/well, 1×10^4 cells/well) were inoculated in 6-well plate and cultured overnight. VC (10.0 µmol/L) or peptides YPLPR, AFEPLR, and NDPF (1.0 mmol/L) were added to each well, and the cells were incubated for an additional 24 hours. Following the incubation, the culture medium was aspirated, and the cells were washed thoroughly with PBS twice. Subsequently, cells in all experimental groups, except for the control group, were exposed to 1.2 mmol/L H2O2 for seven hours. […] After incubation, the cells were rinsed twice with culture medium devoid of FBS and analyzed using a Millipore flow cytometer (Guava easy Cyte 6-2L, Billerica, MA) within 30 minutes.

As to `O=C1O[C@H]([C@@H](O)CO)C(O)=C1O` [VC], the “Relative intracellular ROS content” value is on record as 92.03 (90.83, 98.11) %.

For the origin of these results see paper PMC11085682, “Identification of Novel Peptides in Distillers’ Grains as Antioxidants, α-Glucosidase Inhibitors, and Insulin Sensitizers: In Silico and In Vitro Evaluation” (Nutrients, 2024).
